ChEMBL document CHEMBL1201862, “PubChem BioAssay data set” (2004)
Calls of active or inactive are those of the source. Rule as the data show it, for most assays here: actives have a measured EC50 and inactives only a lower limit.

How the values were obtained:
[1] = HEp-2 cell cytotoxicity, dose response, cytotoxicity control for RSV inhibitor project, HTS (AID 2410); assay type: functional; conditions: human respiratory syncytial virus
[2] = NIH-3T3 fibroblast cytotoxicity, dose response, cytotoxicity control, cell-based, fluorescence, Alamar Blue, secondary assay (AID 2327); assay type: functional;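 also: NIH-3T3 mouse fibroblasts cultured with fluconazole at 8 µg/mL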
[3] = C. albicans growth with fluconazole, confirmation, fluorescence, retest (AID 2467); assay type: functional, cell-based
[4] = test system: BJ; assay: cytotoxicity toward BJ-TERT fibroblasts, dose response, cell-based, RAS-independent, luminescence (AID 1933); assay type: functional; conditions: Homo sapiens
[5] = test system: BJ; assay: cells; assay type: functional, cell-based; conditions: Homo sapiens
[6] = test system: BJ; assay: cytotoxicity toward BJ-TERT-LT-ST fibroblasts, dose response, cell-based, RAS-independent, luminescence (AID 1935); assay type: functional; conditions: Homo sapiens;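 also: BJ fibroblasts immortalized with TERT plus LT and ST oncogenes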
[7] = cytotoxicity toward DRD oncogenic fibroblasts, dose response, cell-based, non-viral oncogenic, luminescence (AID 1934); assay type: functional; conditions: Homo sapiens
[8] = Luminescence Cell-Based Dose Confirmation HTS to Identify Activators of 5'UTR Stem-Loop Driven Alpha-Synuclein mRNA Translation in H4 Neuroglioblastoma Cells. [Related pubchem assays: 1829 (Project Summary), 1814 (Primary HTS)]; assay type: functional
[9] = Luminescence Cell-Based Dose Response HTS to Identify Activators of Luciferase Translation or Activity in H4 […] Cells. [Related pubchem assays: 1829 (Project Summary), 1814 (Primary HTS)]; assay type: functional
[10] = test system: H4; assay: Luminescence Cell-Based Dose Response HTS to Identify Activators of 5'UTR Stem-Loop Driven Prion Protein mRNA Translation in H4 Neuroglioblastoma Cells. [Related pubchem assays: 1829 (Project Summary), 1814 (Primary HTS)]; assay type: functional; conditions: Homo sapiens
[11] = cells; assay type: functional
[12] = target: T1, Calpain-2 catalytic subunit (Sus scrofa, UniProt P43367); assay: pig calpain II inhibitor potency, dose response, biochemical, fluorogenic peptide substrate (AID 1420); assay type: functional
T1 sequence (P43367 whole entry): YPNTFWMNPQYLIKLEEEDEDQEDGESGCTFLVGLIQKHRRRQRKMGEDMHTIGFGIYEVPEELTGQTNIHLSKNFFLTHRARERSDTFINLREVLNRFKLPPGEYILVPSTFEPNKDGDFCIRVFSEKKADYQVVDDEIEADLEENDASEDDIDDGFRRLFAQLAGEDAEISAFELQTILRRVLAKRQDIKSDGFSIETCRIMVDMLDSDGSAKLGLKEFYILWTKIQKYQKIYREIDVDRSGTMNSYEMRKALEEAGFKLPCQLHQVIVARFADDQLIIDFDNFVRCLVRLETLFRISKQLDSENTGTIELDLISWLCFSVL

[13] = Luminescence Cell-Based Dose Retest to Confirm Inhibitors of Cancer Stem Cells. [Related pubchem assays (depositor defined):AID2717, AID2721]; assay type: functional; conditions: Homo sapiens
[14] = test system: Streptococcus sp. 'group A'; assay: growth inhibition of control SK(-) GAS strain, dose response, counter-screen for streptokinase expression inhibitor project, luminescence, kanamycin, BacTiterGlo, confirmation (AID 1900); assay type: functional, organism-based
[15] = target: T2, Streptokinase A (Streptococcus pyogenes serotype M1, UniProt P10520); assay: S. pyogenes streptokinase expression inhibitors, potency, dose response, plasminogen activation absorbance, OD405 (AID 1914); assay type: functional, Streptococcus pyogenes M1 GAS;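 also: secreted streptokinase activity via plasminogen activation per viability signal from cell pellet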
T2 sequence (P10520 whole entry): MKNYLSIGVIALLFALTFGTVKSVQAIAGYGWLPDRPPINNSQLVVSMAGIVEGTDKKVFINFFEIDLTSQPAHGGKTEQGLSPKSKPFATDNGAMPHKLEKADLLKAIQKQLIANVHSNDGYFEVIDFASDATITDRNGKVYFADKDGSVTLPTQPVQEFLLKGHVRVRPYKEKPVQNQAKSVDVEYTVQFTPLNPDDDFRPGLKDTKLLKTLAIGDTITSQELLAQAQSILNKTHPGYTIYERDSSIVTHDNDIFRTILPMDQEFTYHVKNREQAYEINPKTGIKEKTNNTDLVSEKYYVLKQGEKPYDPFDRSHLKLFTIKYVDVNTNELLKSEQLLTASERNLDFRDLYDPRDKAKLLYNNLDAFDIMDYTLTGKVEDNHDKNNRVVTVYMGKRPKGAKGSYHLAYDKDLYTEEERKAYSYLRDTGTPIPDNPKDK

[16] = test system: Streptococcus; assay: Group A Streptococcus viability loss, dose response, counter-screen for streptokinase expression inhibitor project, luminescence, BacTiterGlo (AID 1915); assay type: functional, organism-based;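 also: potency for reduction of bacterial viability or growth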
[17] = Shn3 3'UTR reporter inhibitors, dose response, cell-based, Clone20 osteoblasts, firefly luciferase, cherry-picked (AID 624132); assay type: functional;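 also: firefly luciferase luminescence from reporter carrying the Shn3 3'UTR in osteoblasts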
[18] = HepG2 cell cytotoxicity, dose response, cytotoxicity control for Shn3 inhibitor project, CellTiter-Glo, cherry-picked (AID 624134); assay type: functional, cell-based
[19] = control 3'UTR Renilla luciferase suppression, dose response, counter-screen for Shn3 inhibitor project, cell-based, Clone20-Shn3RL, cherry-picked (AID 624133); assay type: functional

## COc1ccc(C(=O)CCc2ccccc2O)c(OC)c1
[1]
  CC50: 41.8 µM (active)

## CCCOc1cccc(-c2nnc(NC(=O)c3ccco3)s2)c1
[2]
  EC50: 15.9 µM (active)
[3]
  EC50: 1.91 µM (active)

## Cc1cccc(OCCNc2cc(N3CCN(CCO)CC3)ccc2[N+](=O)[O-])c1
[1]
  CC50: 15.6 µM (active)

## CNc1nccc(-c2ccc(F)cc2)c1C#N
[1]
  CC50: 47.5 µM (active)

## CCCC1=Nc2cc(C(=O)NCCCOC(C)C)ccc2Sc2ccccc21
[4]
  EC50: 9.44 µM (inconclusive)
[5]
  EC50: 37.8 µM (active)
[6]
  EC50: 17.2 µM (inconclusive)
[7]
  EC50: 5.1 µM (active)

## Cc1cc(C)nc(Nc2n[nH]c(-c3ccccc3Cl)n2)n1
[8]
  EC50: 12.3 µM (active)
[9]
  EC50: 19.8 µM (active)
[10]
  EC50: 52.7 µM (inconclusive)

## O=C(Oc1ccccc1)c1cc2ccccc2o1
[11]
  IC50: 18.4 µM (active)

## O=C(Oc1ccccc1)c1ccc(COC(=O)c2cnccn2)cc1
[11]
  IC50: 6.29 µM (active)

## Cc1onc(-c2c(F)cccc2Cl)c1C(=O)NNC(=O)C1CCN(Cc2ccccc2)CC1
[2]
  EC50: > 150 µM (inconclusive)
[3]
  EC50: > 38 µM (not active)

## COc1ccc(C(=O)Nc2nc3ccc(OC)cc3s2)cc1
[1]
  CC50: 21.5 µM (active)

## Oc1cccc(Nc2nc(-c3ccccc3)nc3ccccc23)c1
[1]
  CC50: 13.3 µM (active)

## CCOc1ccc2nc(NC(=O)CSc3nc(SC)ns3)sc2c1
[8]
  EC50: 12.7 µM (active)
[9]
  EC50: 8.43 µM (active)
[10]
  EC50: 47.5 µM (active)

## CC(C)(C)c1ccc(C(=O)C2CCCN(Cc3ccon3)C2)cc1 (stereo unspecified)
[8]
  EC50: 14.6 µM (active)
[9]
  EC50: 18.3 µM (active)
[10]
  EC50: 17.2 µM (active)

## CCOc1ccc(NC(=O)C(c2ccccn2)N(C(=O)CCl)c2ccc(OC)cc2)cc1 (stereo unspecified)
[4]
  EC50: > 150 µM (not active)
[5]
  EC50: > 150 µM (not active)
[6]
  EC50: > 150 µM (inconclusive)
[7]
  EC50: > 150 µM (not active)

## Cc1ccc(S(=O)(=O)NC(=Nc2ccccn2)c2ccc(Cl)cc2)cc1
[8]
  EC50: > 120 µM (not active)
[9]
  EC50: 34.8 µM (active)
[10]
  EC50: > 120 µM (not active)

## Cc1cc(C(=O)OCC(=O)N2CCc3ccccc32)c(C)o1
[8]
  EC50: 5.44 µM (active)
[9]
  EC50: 21.6 µM (active)
[10]
  EC50: 13.4 µM (active)

## CCOc1ccc(NC2=NC(=O)CS2)cc1
[1]
  CC50: 24.5 µM (active)

## Cc1ccc(-c2ccc([C@H]3[C@@H]4C=CCC[C@@]4(C)C(=O)N3Cc3ccccc3)c(F)c2)cc1
[12]
  IC50: 3.65 µM (not active)
[13]
  AC50: 3.55 µM (active)

## O=C(O)/C=C/c1ccc(S(=O)(=O)Nc2ccc(C(=O)NCC(=O)O)cc2)cc1
[2]
  EC50: > 160 µM (inconclusive)
[3]
  EC50: > 38 µM (not active)

## CC/C(=C/c1ccccc1)c1cccc2[nH]c3c(OC)cccc3c12
[14]
  EC50: 1.87 µM (active)
[15]
  EC50: 19.6 µM (active)
[16]
  EC50: 4.75 µM (active)
[17]
  AC50: 32.8 µM (active)
[18]
  AC50: > 70 µM (inactive)
[19]
  AC50: 19 µM (active)

## CCOC(=O)c1cc2cc3ccccc3cc2oc1=O
[11]
  IC50: 10.9 µM (active)
